Where a name gives a salt, the structure may show the parent alone.

One test deals with Plasmodium falciparum: 3D7 strain. The experiment in a line: P. falciparum 3D7 asexual blood stage assay (SYBR green readout). The settings on record: Plasmodium falciparum, 3D7, Erythrocyte, 72 h, P. falciparum 3D7 in human erythrocytes, 72 h incubation, SYBR green fluorescence. The class given is cell-based. The gist of the method:
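3D7-infected erythrocytes (5% haematocrit, 0.5% parasitaemia) were exposed 72 h at 37 °C under 1% O2/3% CO2 to a 20-point titration (50,000-15 nM final, 0.5% DMSO). Parasite DNA was read by SYBR green fluorescence after overnight lysis. Percent inhibition was set against mefloquine and DMSO, and EC50 came from a biphasic two-site fit.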
As usually defined, the IC50 is the concentration that inhibits the measured activity by half. `C[C@H]1C[C@@H](N2C(=N)N[C@](C)(c3cccc(-c4cccc(C(O)C(F)(F)F)c4)c3Cl)CC2=O)CCO1` (single isomer, unassigned) [Example 28, (6S)-6-(2-Chloro-3-{3-[(1S*)-2,2,2-trifluoro-1-hydroxyethyl]phenyl}-phenyl)-2-imino-6-methyl-3-[(2S,4S)-2-methyltetrahydropyran-4-yl]hexahydropyrimidin-4-one hydrochloride] had a concentration for half-maximal inhibition (IC50) of 26 nM.
`C[C@@]1(c2cccc(-c3cccc(Cl)c3)c2Cl)CC(=O)N(C(CO)C2CC2)C(=N)N1` (single isomer, unassigned) [Example 94, (6S)-6-[2-Chloro-3-(3-chloro-phenyl)phenyl]-3-[(1R*)-1-cyclopropyl-2-hydroxyethyl]-2-imino-6-methylhexahydro-pyrimidin-4-one hydrochloride]: the 50% inhibitory concentration (IC50) came out at 88 nM.
Regarding `C[C@H]1C[C@@H](N2C(=N)N[C@](C)(c3cccc(-c4cncc(Cl)c4)c3Cl)CC2=O)CCO1` [Example 1, (6S)-6-[2-Chloro-3-(5-chloro-pyridin-3-yl)phenyl]-2-imino-6-methyl-3-[(2S,4S)-2-methyl-tetrahydropyran-4-yl]hexahydro-pyrimidin-4-one hydrochloride], the half-inhibitory concentration (IC50) was determined as 22 nM.
In the case of `C[C@H]1C[C@@H](N2C(=N)N[C@](C)(c3cccc(-c4ccc(OC(F)(F)F)cc4Cl)c3Cl)CC2=O)CCO1` [Example 2, (6S)-6-{2-Chloro-3-[2-chloro-4-(trifluoromethoxy)phenyl]phenyl}-2-imino-6-methyl-3-[(2S,4S)-2-methyltetrahydropyran-4-yl]-hexahydropyrimidin-4-one hydrochloride], it took 78 nM to reach half-maximal inhibition (IC50).
As to `C[C@H]1C[C@@H](N2C(=N)N[C@](C)(c3cccc(-c4cccc(S(C)(=O)=O)c4)c3Cl)CC2=O)CCO1` [Example 4, (6S)-6-[2-Chloro-3-(3-methyl-sulfonylphenyl)phenyl]-2-imino-6-methyl-3-[(2S,4S)-2-methyl-tetrahydropyran-4-yl]hexahydro-pyrimidin-4-one hydrochloride], it took 17 nM to reach half-maximal inhibition (IC50).
With `C[C@H]1C[C@@H](N2C(=N)N[C@](C)(c3cccc(-c4cccc(P(C)(C)=O)c4)c3Cl)CC2=O)CCO1` [Example 5, (6S)-6-[2-Chloro-3-(3-dimethyl-phosphorylphenyl)phenyl]-2-imino-6-methyl-3-[(2S,4S)-2-methyl-tetrahydropyran-4-yl]hexahydro-pyrimidin-4-one hydrochloride], the IC50 stood at 101 nM.
`C[C@H]1C[C@@H](N2C(=N)N[C@](C)(c3cccc(-c4ccc5ncn(CC(F)(F)F)c5c4)c3Cl)CC2=O)CCO1` [Example 6, (6S)-6-{2-Chloro-3-[3-(2,2,2-trifluoroethyl)benzimidazol-5-yl]-phenyl}-2-imino-6-methyl-3-[(2S,4S)-2-methyltetrahydropyran-4-yl]hexahydropyrimidin-4-one hydrochloride] displayed an IC50 of 26 nM.
`C[C@H]1C[C@@H](N2C(=N)N[C@](C)(c3cccc(-c4cccc(NS(C)(=O)=O)c4)c3Cl)CC2=O)CCC1(F)F` [Example 13, N-[3-(2-Chloro-3-{(4S)-1-[(1S,3S)-4,4-difluoro-3-methylcyclohexyl]-2-imino-4-methyl-6-oxohexahydro-pyrimidin-4-yl}phenyl)phenyl]-methanesulfonamide trifluoroacetic acid salt] had an IC50 of 10 nM.
Consider `C[C@H]1C[C@@H](N2C(=N)N[C@](C)(c3cccc(-c4ccc(NS(C)(=O)=O)cc4)c3Cl)CC2=O)CCC1(F)F` [Example 14, N-[4-(2-Chloro-3-{(4S)-1-[(1S,3S)-4,4-difluoro-3-methylcyclohexyl]-2-imino-4-methyl-6-oxohexahydro-pyrimidin-4-yl}phenyl)phenyl]-methanesulfonamide trifluoroacetic acid salt], for which the IC50 came to 97 nM.
Still for that read-out and setting: the figure for `C[C@H]1C[C@@H](N2C(=N)N[C@](C)(c3cccc(-c4ccc(Cl)cc4F)c3Cl)CC2=O)CCO1` [Example 15, (6S)-6-[2-Chloro-3-(4-chloro-2-fluorophenyl)phenyl]-2-imino-6-methyl-3-[(2S,4S)-2-methyl-tetrahydropyran-4-yl]hexahydro-pyrimidin-4-one trifluoroacetic acid salt] is 142 nM; for `C[C@H]1C[C@@H](N2C(=N)N[C@](C)(c3cccc(-c4ccc(Cl)cc4Cl)c3Cl)CC2=O)CCO1` [Example 16, (6S)-6-[2-Chloro-3-(2,4-dichloro-phenyl)phenyl]-2-imino-6-methyl-3-[(2S,4S)-2-methyltetrahydro-pyran-4-yl]hexahydropyrimidin-4-one trifluoroacetic acid salt] it is 66 nM; for `C[C@H]1C[C@@H](N2C(=N)N[C@](C)(c3cccc(-c4cccc(Cl)c4)c3Cl)CC2=O)CCO1` [Example 17, (6S)-6-[2-Chloro-3-(3-chloro-phenyl)phenyl]-2-imino-6-methyl-3-[(2S,4S)-2-methyltetrahydro-pyran-4-yl]hexahydropyrimidin-4-one trifluoroacetic acid salt] it is 92 nM.
Still for that read-out and setting: the same measure for `C[C@H]1C[C@@H](N2C(=N)N[C@](C)(c3cccc(-c4ccc(N=S(C)(C)=O)cc4F)c3Cl)CC2=O)CCC1(F)F` [Example 18, (6S)-6-[2-Chloro-3-(4-{[(dimethyl)-(oxo)-λ^6-sulfanylidene]amino}-2-fluorophenyl)phenyl]-3-[(1S,3S)-4,4-difluoro-3-methylcyclohexyl]-2-imino-6-methylhexahydro-pyrimidin-4-one hydrochloride]: 292 nM.
Turning to `C[C@H]1C[C@@H](N2C(=N)N[C@](C)(c3cccc(-c4ccc(P(C)(C)=O)cc4F)c3Cl)CC2=O)CCC1(F)F` [Example 19, (6S)-6-[2-Chloro-3-(4-dimethyl-phosphoryl-2-fluorophenyl)-phenyl]-3-[(1S,3S)-4,4-difluoro-3-methylcyclohexyl]-2-imino-6-methylhexahydropyrimidin-4-one hydrochloride], the IC50 came out at 386 nM.
Still for that read-out and setting: the figure for `C[C@H]1C[C@@H](N2C(=N)N[C@](C)(c3cccc(-c4cccc(N=S(C)(C)=O)c4)c3Cl)CC2=O)CCC1(F)F` [Example 20, (6S)-6-[2-Chloro-3-(3-{[(dimethyl)-(oxo)-λ^6-sulfanylidene]amino}-phenyl)phenyl]-3-[(1S,3S)-4,4-difluoro-3-methylcyclohexyl]-2-imino-6-methylhexahydro-pyrimidin-4-one hydrochloride] is 88 nM; for `C[C@H]1C[C@@H](N2C(=N)N[C@](C)(c3cccc(-c4cccc(N5CCOCC5)c4)c3Cl)CC2=O)CCO1` [Example 29, (6S)-6-{2-Chloro-3-[3-(morpholin-4-yl)phenyl]phenyl}-2-imino-6-methyl-3-[(2S,4S)-2-methyl-tetrahydropyran-4-yl]hexahydro-pyrimidin-4-one trifluoroacetic acid salt] it is 65 nM; for `C[C@H]1C[C@@H](N2C(=N)N[C@](C)(c3cccc(-c4cc5cccnc5n4C)c3Cl)CC2=O)CCO1` [Example 30, (6S)-6-[2-Chloro-3-(1-methyl-pyrrolo[2,3-b]pyridin-2-yl)phenyl]-2-imino-6-methyl-3-[(2S,4S)-2-methyltetrahydropyran-4-yl]-hexahydropyrimidin-4-one trifluoroacetic acid salt] it is 199 nM.
Take `C[C@H]1C[C@@H](N2C(=N)N[C@](C)(c3cccc(-c4ccc(C5CC5)nc4)c3Cl)CC2=O)CCO1` [Example 31, (6S)-6-[2-Chloro-3-(6-cyclopropyl-pyridin-3-yl)phenyl]-2-imino-6-methyl-3-[(2S,4S)-2-methyl-tetrahydropyran-4-yl]hexahydro-pyrimidin-4-one trifluoroacetic acid salt]: the IC50 came to 180 nM.
The compound `Cc1cc(-c2cccc([C@]3(C)CC(=O)N([C@H]4CCO[C@@H](C)C4)C(=N)N3)c2Cl)on1` [Example 32, (6S)-6-[2-Chloro-3-(3-methyl-isoxazol-5-yl)phenyl]-2-imino-6-methyl-3-[(2S,4S)-2-methyl-tetrahydropyran-4-yl]hexahydro-pyrimidin-4-one trifluoroacetic acid salt] displayed an IC50 of 50 nM.
Still for that read-out and setting: the same measure for `C[C@H]1C[C@@H](N2C(=N)N[C@](C)(c3cccc(-c4ccnnc4)c3Cl)CC2=O)CCO1` [Example 33, (6S)-6-[2-Chloro-3-(pyridazin-4-yl)phenyl]-2-imino-6-methyl-3-[(2S,4S)-2-methyltetrahydropyran-4-yl]hexahydropyrimidin-4-one trifluoroacetic acid salt]: 186 nM; for `C[C@H]1C[C@@H](N2C(=N)N[C@](C)(c3cccc(-c4ccn(C)c(=O)c4)c3Cl)CC2=O)CCO1` [Example 34, (6S)-6-[2-Chloro-3-(1-methyl-2-oxopyridin-4-yl)phenyl]-2-imino-6-methyl-3-[(2S,4S)-2-methyl-tetrahydropyran-4-yl]hexahydro-pyrimidin-4-one trifluoroacetic acid salt]: 286 nM.

Still in this test, the particulars now being: Plasmodium falciparum, Erythrocyte; P. falciparum 3D7 in human erythrocytes, 72 h incubation, SYBR green fluorescence; read-out: IC50.
Consider `CN(C)[C@H]1C[C@H](N2C(=N)N[C@](C)(c3cccc(-c4ccc(F)cc4F)c3Cl)CC2=O)C1` (single isomer, unassigned; isomer 1) [Example 88], for which the IC50 came to 657 nM.
Turning to `CN(C)[C@H]1C[C@@H](N2C(=N)N[C@](C)(c3cccc(-c4ccc(F)cc4F)c3Cl)CC2=O)C1` (single isomer, unassigned; isomer 2) [Example 89], the IC50 is 7950 nM.
For `C[C@H]1C[C@@H](N2C(=N)N[C@](C)(c3cccc(-c4cccc(N=S(C)(C)=O)c4)c3Cl)CC2=O)CCO1` [Example 3, (6S)-6-[2-Chloro-3-(3-{[(dimethyl)-(oxo)-26-sulfanylidene]amino}-phenyl)phenyl]-2-imino-6-methyl-3-[(2S,4S)-2-methyltetrahydro-pyran-4-yl]hexahydropyrimidin-4-one hydrochloride], the IC50 came out at 90 nM.

The values above are taken from US20250134890A1, “ANTIMALARIAL HEXAHYDROPYRIMIDINE ANALOGUES” (UCB BIOPHARMA SRL, priority 2022, published 2025).
